Values of other authors, collected in patent US20010039262A1, “Methods and compositions for the treatment of cardiac indications” (priority 2000, published 2001).

Key:
[1] = test system: patients with severe HF; details: spironolactone administered along with captopril and furosemide
[2] = test system: patients with stable Congestive Heart Failure (NYHA class II-IV)
[3] = heart failure patients treated with spironolactone

CC(=O)S[C@@H]1CC2=CC(=O)CC[C@]2(C)[C@H]2CC[C@@]3(C)[C@@H](CC[C@@]34CCC(=O)O4)[C@H]12 [spironolactone]
reduction of morbidity and mortality [1]: 27%
morbidity ([2]; 31 patients with stable CHF (NYHA class II-IV), spironolactone vs placebo in addition to diuretics and ACE inhibitor): lowered
early morning rise in heart rate [2, 3]: reduced
heart rate variability [2, 3]: improved
vascular collagen turnover [2, 3]: reduced
reduction in myocardial fibrosis activity ([2]; spironolactone 50-100 mg/day in addition to diuretics and ACE inhibitor, 8 weeks of active therapy): approximately 20%
